Results as given in patent publication US7807781B2, “Inhibitors of serine protease activity and their use in methods and compositions for treatment of viral infections” (The Regents of the University of Colorado, priority 1999, dated 2010).

Legend:
[1] = test system: HIV-1 production in U1 cells; experiment: U1 monocytic cell assay, IL-18-induced HIV-1 p24 antigen; format: cell-based; conditions: for p24 production: 0.5 nM IL-18, 48 hr
Text: U1 monocytic cell assay. U1 cells are obtained from the AIDS Research and Reference Reagent Program, National Institute of Allergy and Infectious Diseases, NIH. U1 cells are maintained in T-175 polystyrene flasks (Falcon, Becton Dickinson, Franklin Lakes, N.J.) in medium and used when in log phase growth. Cells are counted in a hemacytometer, examined for viability by Trypan blue exclusion (>95% for all experiments) and resuspended in fresh medium at 2×10^6 per ml. Two-hundred fifty […] are added to wells of 24-well polystyrene tissue culture plates (Falcon), followed by the addition of medium or AAT to produce the final concentration to be tested in a volume of […]. After 1.0 hr of incubation (37° C., 5% CO2), 50 ml of medium (control) or stimulus diluted in medium are added to wells to produce the final concentration of stimulus to be tested. The final culture volumes are […] and contained 1×10^6 cells per ml. After 48 hr of incubation (37° C. and 5% CO2) 50 ml of 10% (vol/vol) Triton-X-100 (Fisher Scientific, Fair Lawn, N.J.) is added to each culture (final concentration of 1% vol/vol), and cultures are frozen and thawed once. This is followed by assay for HIV-1 p24 antigen by ELISA with a lower limit of detection of 31 pg/ml (NCI-Frederick Cancer Research and Development Center, Frederick, Md.). The disruption of cells due to the addition of Triton-X-100 and the freeze-thaw cycle produced cell lysates and enabled assessment of total (secreted and cell-associated) production of p24 antigen.
Data are presented as means±SEM. Group means are compared by ANOVA using Fisher's least significant difference. For data expressed as percent change, the values for p24 in control cultures (medium alone) are subtracted from those for each culture-containing stimulus. The p24 concentrations in cultures conducted in the presence of stimulus alone are set at 100%. Percent p24 in cultures containing stimulus and AAT are calculated by dividing the measured p24 by that present in cultures containing stimulus alone. The resultant fraction is expressed as a percent.
The U1 cell line is derived from human monocytic U937 cells into which 2 copies of HIV-1 provirus are incorporated into host genome. Exposing U1 cells to pro-inflammatory cytokines such as IL-18, IL-1, IL-6 and TNF, phorbol esters or hyperosmolarity results in the induction of HIV-1 as assessed by p24 antigen. Stimulation of U1 cells with 0.5 nM IL-18 induced large amounts of p24 antigen after 48 hr of incubation in 3 separate experiments. U1 cells cultured in medium alone (control) contained a mean of 41.3±11.5 pg/ml p24 antigen, which is increased 150-fold to 6,235±1,775 pg/ml p24 following stimulation with IL-18. […] At 1, 2 and 3 mg/ml AAT, the percent reductions observed compared to stimulation with IL-18 alone are 65±1.8, 93±3.0 and 98±1%, respectively.

[2] = test system: HIV-1 production in U1 cells; experiment: U1 monocytic cell assay, NaCl (hyperosmolarity)-induced HIV-1 p24 antigen; format: cell-based

In the case of “AAT: Alpha-1-antitrypsin purified from the blood of healthy volunteers to single-band homogeneity”, the p24 production ([1]; AAT 0.1 mg/ml) is reported as 6,879±207 pg/ml, the p24 production ([1]; AAT 0.5 mg/ml) is reported as 3,687±968 pg/ml and the p24 production ([1]; AAT 1 mg/ml) is reported as 2,029±625 pg/ml. The p24 production ([1]; AAT 2 mg/ml) was 452 ± 209 pg/mL, the p24 production ([1]; AAT 3 mg/ml) was 179 ± 79 pg/mL and the “percent reduction of p24 compared to IL-18 alone” value (“percent reduction of p24” below) ([1]; AAT 1 mg/ml) was 65±1.8%. The “percent reduction of p24” value ([1]; AAT 2 mg/ml) was 93±3.0%, the “percent reduction of p24” value ([1]; AAT 3 mg/ml) was 98±1% and the “range of inhibition of HIV-1 production in U1 cells” value ([1]; all stimuli tested (IL-18, IL-6, TNF, LPS, hyperosmolarity)) was 73-100%. For the same substance, the “NaCl-induced 26-fold increase in p24 concentration” value ([2]; 60 mM NaCl, 5 mg/ml AAT) was “completely inhibited”, the “mean p24 level” value ([2]; 60 mM NaCl, AAT 0.1 mg/ml) was 11,054±3,231 pg/ml and the “mean p24 level” value ([2]; 60 mM NaCl, AAT 0.5 mg/ml) was 7,363±485 pg/ml. The “mean p24 level” value ([2]; 60 mM NaCl, AAT 1.0 mg/ml) was 5,657±48 pg/ml, the “mean p24 level” value ([2]; 60 mM NaCl, AAT 3.0 mg/ml) was 1,919±594 pg/ml and the “mean p24 level” value ([2]; 60 mM NaCl, AAT 4.0 mg/ml) was 425 ± 32 pg/mL. The “mean p24 level” value ([2]; 60 mM NaCl, AAT 5.0 mg/ml) was 266 ± 26 pg/mL, the “percent inhibition of NaCl-induced p24” value ([2]; AAT 3.0 mg/ml) was 76% and the “percent inhibition of NaCl-induced p24” value ([2]; AAT 4.0 mg/ml) was 98.3%. For the same substance, the “percent inhibition of NaCl-induced p24” value ([2]; AAT 5.0 mg/ml) was 100%.
